The assay deals with recombinant full length HPK-1 enzyme (Homo sapiens (Human), UniProt Q92918). As to the kind of experiment: HPK-1 biochemical enzyme assay (ADP-Glo kinase inhibition). Particulars: recombinant full length HPK-1 6.8 nM, 10 μM ATP, 12.5 μM MBP, 30 mins at 25° C. A digest of the protocol: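 Recombinant full-length human HPK-1 (6.8 nM) incubated 30 min at 25° C. with 10 μM ATP and 12.5 μM swine MBP in 40 mM Tris pH 7.4, 20 mM MgCl2, 50 μM DTT, 0.1 mg/mL BSA. ADP measured by ADP-Glo; IC50 from 10 concentrations, normalized to no-enzyme and vehicle controls.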
(In general: In ADP-Glo the light output rises with the ADP produced.)

The structures appear in SMILES notation.

One may read the IC50 as the point on the concentration scale where inhibition reaches its midpoint.

recombinant full length HPK-1 enzyme, sequence (Q92918 whole entry, species assumed): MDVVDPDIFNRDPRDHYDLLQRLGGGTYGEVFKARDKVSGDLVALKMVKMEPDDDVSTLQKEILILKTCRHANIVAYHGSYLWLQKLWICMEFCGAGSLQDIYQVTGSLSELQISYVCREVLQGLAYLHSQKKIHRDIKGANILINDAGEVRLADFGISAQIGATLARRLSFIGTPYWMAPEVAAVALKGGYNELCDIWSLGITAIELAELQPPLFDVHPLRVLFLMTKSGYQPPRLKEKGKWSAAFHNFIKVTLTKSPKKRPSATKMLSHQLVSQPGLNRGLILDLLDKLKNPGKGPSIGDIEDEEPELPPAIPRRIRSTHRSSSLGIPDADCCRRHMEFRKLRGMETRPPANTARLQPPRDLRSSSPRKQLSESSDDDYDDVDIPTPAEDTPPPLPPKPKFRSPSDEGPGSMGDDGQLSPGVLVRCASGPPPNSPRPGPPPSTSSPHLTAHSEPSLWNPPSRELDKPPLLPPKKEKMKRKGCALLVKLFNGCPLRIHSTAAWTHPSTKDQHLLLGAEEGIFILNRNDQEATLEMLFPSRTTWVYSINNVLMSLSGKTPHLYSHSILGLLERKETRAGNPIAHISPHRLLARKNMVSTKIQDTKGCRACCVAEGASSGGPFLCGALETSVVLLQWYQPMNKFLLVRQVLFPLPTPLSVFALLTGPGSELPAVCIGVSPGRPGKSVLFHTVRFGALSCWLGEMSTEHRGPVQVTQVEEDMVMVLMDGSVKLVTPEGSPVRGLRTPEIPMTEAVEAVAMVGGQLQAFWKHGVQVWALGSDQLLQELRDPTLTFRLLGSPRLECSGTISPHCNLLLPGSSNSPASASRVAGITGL

On to `Cc1c(Nc2cc[nH]c(=O)c2C(=O)Nc2ccc(N3CCN(C(=O)C(C)(C)F)CC3)cc2)cnc2c1NCCO2` [Example 342, N-(4-(4-(2-fluoro-2-methylpropanoyl)piperazin-1-yl)phenyl)-4-((8-methyl-2,3-dihydro-1H-pyrido[2,3-b][1,4]oxazin-7-yl)amino)-2-oxo-1,2-dihydropyridine-3-carboxamide], for which the concentration for half-maximal inhibition (IC50) was at most 10 nM.

`Cc1c(Nc2cc[nH]c(=O)c2C(=O)Nc2ccc(N3CCN(C(=O)C(C)C)[C@@H](C)C3)cc2)cnc2c1NCCO2` [Example 343, (S)-N-(4-(4-isobutyryl-3-methylpiperazin-1-yl)phenyl)-4-((8-methyl-2,3-dihydro-1H-pyrido[2,3-b][1,4]oxazin-7-yl)amino)-2-oxo-1,2-dihydropyridine-3-carboxamide]: the IC50 is at most 10 nM.

For `COC(C)(C)C(=O)N1CCN(c2ccc(NC(=O)c3c(Nc4cnc5c(c4C)NCCO5)cc[nH]c3=O)cc2)CC1` [Example 344, N-(4-(4-(2-methoxy-2-methylpropanoyl)piperazin-1-yl)phenyl)-4-((8-methyl-2,3-dihydro-1H-pyrido[2,3-b][1,4]oxazin-7-yl)amino)-2-oxo-1,2-dihydropyridine-3-carboxamide], the IC50 is at most 10 nM.

Consider `CCC(=O)N1CCN(c2ccc(NC(=O)c3c(Nc4cnc5c(c4C)NCCO5)cc[nH]c3=O)cc2)C[C@@H]1C` [Example 345, (S)-4-((8-methyl-2,3-dihydro-1H-pyrido[2,3-b][1,4]oxazin-7-yl)amino)-N-(4-(3-methyl-4-propionylpiperazin-1-yl)phenyl)-2-oxo-1,2-dihydropyridine-3-carboxamide], for which the IC50 is at most 10 nM.

For `COCCN1CCN(c2ccc(NC(=O)c3c(Nc4cnc5c(c4C)NCCO5)cc[nH]c3=O)cc2)C[C@@H]1C` [Example 346, (S)-N-(4-(4-(2-methoxyethyl)-3-methylpiperazin-1-yl)phenyl)-4-((8-methyl-2,3-dihydro-1H-pyrido[2,3-b][1,4]oxazin-7-yl)amino)-2-oxo-1,2-dihydropyridine-3-carboxamide], the IC50 was at most 10 nM.

For the compound `CCC(=O)N1CCN(c2ccc(NC(=O)c3c(Nc4cnc5c(c4C)NCCO5)cc[nH]c3=O)cc2)C[C@H]1C` [Example 347, (R)-4-((8-methyl-2,3-dihydro-1H-pyrido[2,3-b][1,4]oxazin-7-yl)amino)-N-(4-(3-methyl-4-propionylpiperazin-1-yl)phenyl)-2-oxo-1,2-dihydropyridine-3-carboxamide], the IC50 is at most 10 nM.

For the compound `COCCN1CCN(c2ccc(NC(=O)c3c(Nc4cnc5c(c4C)NCCO5)cc[nH]c3=O)cc2)C[C@H]1C` [Example 348, (R)-N-(4-(4-(2-methoxyethyl)-3-methylpiperazin-1-yl)phenyl)-4-((8-methyl-2,3-dihydro-1H-pyrido[2,3-b][1,4]oxazin-7-yl)amino)-2-oxo-1,2-dihydropyridine-3-carboxamide], the concentration for half-maximal inhibition (IC50) was at most 10 nM.

Consider `Cc1c(Nc2cc[nH]c(=O)c2C(=O)Nc2ccc(N3CCN(C(=O)C(C)C)[C@H](C)C3)cc2)cnc2c1NCCO2` [Example 349, (R)-N-(4-(4-isobutyryl-3-methylpiperazin-1-yl)phenyl)-4-((8-methyl-2,3-dihydro-1H-pyrido[2,3-b][1,4]oxazin-7-yl)amino)-2-oxo-1,2-dihydropyridine-3-carboxamide], for which the IC50 is at most 10 nM.

In the case of `CO[C@@H](C)C(=O)N1CCN(c2ccc(NC(=O)c3c(Nc4cnc5c(c4C)NCCO5)cc[nH]c3=O)cc2)CC1` [Example 350, (S)-N-(4-(4-(2-methoxypropanoyl)piperazin-1-yl)phenyl)-4-((8-methyl-2,3-dihydro-1H-pyrido[2,3-b][1,4]oxazin-7-yl)amino)-2-oxo-1,2-dihydropyridine-3-carboxamide], the concentration for half-maximal inhibition (IC50) was at most 10 nM.

For `COCC(C)N1CCN(c2ccc(NC(=O)c3c(Nc4cnc5c(c4C)NCCO5)cc[nH]c3=O)cc2)CC1` (stereo not drawn) [Example 351, N-(4-(4-(1-methoxypropan-2-yl)piperazin-1-yl)phenyl)-4-((8-methyl-2,3-dihydro-1H-pyrido[2,3-b][1,4]oxazin-7-yl)amino)-2-oxo-1,2-dihydropyridine-3-carboxamide], the IC50 is 10 to 100 nM.

For `Cc1c(Nc2cc[nH]c(=O)c2C(=O)Nc2ccc(N3CCN(C#N)CC3)cc2)cnc2c1NCCO2` [Example 352, N-(4-(4-cyanopiperazin-1-yl)phenyl)-4-((8-methyl-2,3-dihydro-1H-pyrido[2,3-b][1,4]oxazin-7-yl)amino)-2-oxo-1,2-dihydropyridine-3-carboxamide], the IC50 lay in the range of 10 to 100 nM.

Consider `CO[C@H](C)C(=O)N1CCN(c2ccc(NC(=O)c3c(Nc4cnc5c(c4C)NCCO5)cc[nH]c3=O)cc2)CC1` [Example 353, (R)-N-(4-(4-(2-methoxypropanoyl)piperazin-1-yl)phenyl)-4-((8-methyl-2,3-dihydro-1H-pyrido[2,3-b][1,4]oxazin-7-yl)amino)-2-oxo-1,2-dihydropyridine-3-carboxamide], for which the IC50 was 10 to 100 nM.

Consider `CNC(C)C(=O)N1CCN(c2ccc(NC(=O)c3c(Nc4cnc5c(c4C)NCCO5)cc[nH]c3=O)cc2)CC1` (stereo not drawn) [Example 354, 4-((8-methyl-2,3-dihydro-1H-pyrido[2,3-b][1,4]oxazin-7-yl)amino)-N-(4-(4-(methylalanyl)piperazin-1-yl)phenyl)-2-oxo-1,2-dihydropyridine-3-carboxamide], for which the IC50 fell in the range of 10 to 100 nM.

On to `Cc1c(Nc2cc[nH]c(=O)c2C(=O)Nc2ccc(N3CCN(C(=O)C4(C)CC4)CC3)cc2)cnc2c1NCCO2` [Example 355, 4-((8-methyl-2,3-dihydro-1H-pyrido[2,3-b][1,4]oxazin-7-yl)amino)-N-(4-(4-(1-methylcyclopropane-1-carbonyl)piperazin-1-yl)phenyl)-2-oxo-1,2-dihydropyridine-3-carboxamide], for which the IC50 is at most 10 nM.

On to `Cc1c(Nc2cc[nH]c(=O)c2C(=O)Nc2ccc(N3CCN(C(=O)C4CCN(C)C4)CC3)cc2)cnc2c1NCCO2` (stereo not drawn) [Example 356, 4-((8-methyl-2,3-dihydro-1H-pyrido[2,3-b][1,4]oxazin-7-yl)amino)-N-(4-(4-(1-methylpyrrolidine-3-carbonyl)piperazin-1-yl)phenyl)-2-oxo-1,2-dihydropyridine-3-carboxamide], for which the IC50 lay in the range of 10 to 100 nM.

`Cc1c(Nc2cc[nH]c(=O)c2C(=O)Nc2ccc(N3CCN(C(=O)C(C)(C)O)CC3)cc2)cnc2c1NCCO2` [Example 357, N-(4-(4-(2-hydroxy-2-methylpropanoyl)piperazin-1-yl)phenyl)-4-((8-methyl-2,3-dihydro-1H-pyrido[2,3-b][1,4]oxazin-7-yl)amino)-2-oxo-1,2-dihydropyridine-3-carboxamide]: the IC50 is at most 10 nM.

Regarding `Cc1c(Nc2cc[nH]c(=O)c2C(=O)Nc2ccc(N3CCN(C(=O)C(C)N(C)C)CC3)cc2)cnc2c1NCCO2` (stereo not drawn) [Example 358, N-(4-(4-(dimethylalanyl)piperazin-1-yl)phenyl)-4-((8-methyl-2,3-dihydro-1H-pyrido[2,3-b][1,4]oxazin-7-yl)amino)-2-oxo-1,2-dihydropyridine-3-carboxamide], the IC50 is 10 to 100 nM.

For `Cc1c(Nc2cc[nH]c(=O)c2C(=O)Nc2ccc(N3CCN4C(=O)CC[C@H]4C3)cc2)cnc2c1NCCO2` [Example 359, (S)-4-((8-methyl-2,3-dihydro-1H-pyrido[2,3-b][1,4]oxazin-7-yl)amino)-2-oxo-N-(4-(6-oxohexahydropyrrolo[1,2-a]pyrazin-2(1H)-yl)phenyl)-1,2-dihydropyridine-3-carboxamide], the IC50 was 10 to 100 nM.

Turning to `Cc1c(Nc2cc[nH]c(=O)c2C(=O)Nc2ccc(N3CCN(C)CC3)c(F)c2)cnc2c1NCC(C)O2` (stereo not drawn) [Example 360, 4-((3,8-dimethyl-2,3-dihydro-1H-pyrido[2,3-b][1,4]oxazin-7-yl)amino)-N-(3-fluoro-4-(4-methylpiperazin-1-yl)phenyl)-2-oxo-1,2-dihydropyridine-3-carboxamide], the half-maximal inhibitory concentration (IC50) was 10 to 100 nM.

For `CCN1CCN(c2ccc(NC(=O)c3c(Nc4cnc5c(c4C)NCC(C)O5)cc[nH]c3=O)cc2F)CC1` (stereo not drawn) [Example 361, 4-((3,8-dimethyl-2,3-dihydro-1H-pyrido[2,3-b][1,4]oxazin-7-yl)amino)-N-(4-(4-ethylpiperazin-1-yl)-3-fluorophenyl)-2-oxo-1,2-dihydropyridine-3-carboxamide], the IC50 lay within 10 to 100 nM.

With `CCC(=O)N1CCN(c2ccc(NC(=O)c3c(Nc4cnc5c(c4C)NCC(C)O5)cc[nH]c3=O)cc2)CC1` (stereo not drawn) [Example 362, 4-((3,8-dimethyl-2,3-dihydro-1H-pyrido[2,3-b][1,4]oxazin-7-yl)amino)-2-oxo-N-(4-(4-propionylpiperazin-1-yl)phenyl)-1,2-dihydropyridine-3-carboxamide], the IC50 was 10 to 100 nM.

For the compound `Cc1ccc(N2CCN(c3ccc(NC(=O)c4c(Nc5cnc6c(c5C)NCCO6)cc[nH]c4=O)cc3)CC2)cn1` [Example 363, 4-((8-Methyl-2,3-dihydro-1H-pyrido[2,3-b][1,4]oxazin-7-yl)amino)-N-(4-(4-(6-methylpyridin-3-yl)piperazin-1-yl)phenyl)-2-oxo-1,2-dihydropyridine-3-carboxamide], the IC50 fell in the range of 10 to 100 nM.

Take `COCc1cc(N2CCN(c3ccc(NC(=O)c4c(Nc5cnc6c(c5C)NCCO6)cc[nH]c4=O)cc3)CC2)ccn1` [Example 364, N-(4-(4-(2-(methoxymethyl)pyridin-4-yl)piperazin-1-yl)phenyl)-4-((8-methyl-2,3-dihydro-1H-pyrido[2,3-b][1,4]oxazin-7-yl)amino)-2-oxo-1,2-dihydropyridine-3-carboxamide]: the IC50 lay within 10 to 100 nM.

Turning to `Cc1c(Nc2cc[nH]c(=O)c2C(=O)Nc2ccc(N3CCN(c4ccnc(C(=O)N(C)C)c4)CC3)cc2)cnc2c1NCCO2` [Example 365, N,N-dimethyl-4-(4-(4-(4-((8-methyl-2,3-dihydro-1H-pyrido[2,3-b][1,4]oxazin-7-yl)amino)-2-oxo-1,2-dihydropyridine-3-carboxamido)phenyl)piperazin-1-yl)picolinamide], the IC50 lay in the range of 10 to 100 nM.

The values are drawn from patent US20250282794A1 (CURADEV PHARMA LTD, priority 2022, published 2025).
